Broadly, the pIC50 is the negative decadic logarithm of the IC50, by convention in mol/L. Read a low pIC50 as a large IC50.

In the assay the target is BACE1 (Homo sapiens, UniProt P56817). As to the kind of experiment: cell-based FRET peptide cleavage assay, HEK-293 cells.

SMILES strings stand for the structures. pIC50: −log10 of the molar value.

BACE1, sequence (P56817 46-501): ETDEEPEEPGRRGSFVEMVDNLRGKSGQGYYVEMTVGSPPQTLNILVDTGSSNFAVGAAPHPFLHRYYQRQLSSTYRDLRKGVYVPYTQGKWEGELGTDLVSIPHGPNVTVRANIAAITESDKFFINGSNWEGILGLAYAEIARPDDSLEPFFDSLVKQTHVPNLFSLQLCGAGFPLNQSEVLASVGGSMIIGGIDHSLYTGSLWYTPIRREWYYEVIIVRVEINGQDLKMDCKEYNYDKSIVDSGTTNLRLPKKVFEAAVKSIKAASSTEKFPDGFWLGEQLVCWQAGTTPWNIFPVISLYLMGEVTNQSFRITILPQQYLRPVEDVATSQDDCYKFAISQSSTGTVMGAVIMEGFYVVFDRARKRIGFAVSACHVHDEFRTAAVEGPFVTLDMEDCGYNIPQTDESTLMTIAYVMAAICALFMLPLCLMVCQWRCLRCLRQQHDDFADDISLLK

The compound `COC(=O)C1=C(C)[C@@]2(C)C[C@H]3[C@@]4(C)CCC(=O)C(C)(C)[C@@H]4CC[C@]3(C)[C@@](C)(C1=O)C2=O` [compound 1, asperterpene A] had a pIC50 of 7.11.

In turn, `COC(=O)CC[C@@]1(C)[C@H](C(C)(C)O)CC[C@@]2(C)[C@H]1C[C@@]1(C)C(=O)[C@]2(C)C(=O)C(C(=O)OC)=C1C` [compound 2, asperterpene B] gave a pIC50 of 7.23.

For the origin of these results see PMC5131395, “Asperterpenes A and B, two unprecedented meroterpenoids from Aspergillus terreus with BACE1 inhibitory activities” (Chemical Science, 2016).
